Molecules are shown by their SMILES. Converted amounts (≈) assume the structure as drawn. Where two headings read alike, the source gives them in different places.

The values below come from PMC6661771, “Indole hybridized diazenyl derivatives: synthesis, antimicrobial activity, cytotoxicity evaluation and docking studies” (BMC Chemistry, 2019).

Data set [1] has as its system E. coli. Nature of the data set: Minimum bactericidal concentration (MBC). The format is cell-based. The conditions noted are these: for MBC: Escherichia coli.
The test system of data set [2] is K. pneumonia. Nature of the data set: MIC by tube dilution method. The format is cell-based. Particulars: Klebsiella pneumoniae, 24 h, 24 h at 37 °C, read-out: MIC.
Data set [3] concerns A. niger. Briefly: MIC by tube dilution method. The format is cell-based. Particulars: 7 days at 25 °C.
Data set [4] concerns A. niger. Briefly: Minimum fungicidal concentration (MFC). The format is cell-based. The conditions noted are these: for MFC: Aspergillus niger, read-out: MBC/MFC.
Data set [5] has as its system A. fumigatus. Nature of the data set: MIC by tube dilution method. The format is cell-based. The conditions noted are these: 7 days at 25 °C.
The subject of data set [6] is A. fumigatus. Briefly: Minimum fungicidal concentration (MFC). Format: cell-based. Particulars: for MFC: Aspergillus fumigatus, read-out: MBC/MFC.
The subject of data set [7] is S. enterica. Briefly: MIC by tube dilution method. The format is cell-based. The conditions noted are these: 24 h at 37 °C.
For data set [8], the system named is E. coli. Nature of the data set: MIC by tube dilution method. The format is cell-based. The conditions noted are these: 24 h at 37 °C.
For data set [9], the system named is B. subtilis. Briefly: MIC by tube dilution method. Format: cell-based. Particulars: 24 h at 37 °C.
Data set [10] has as its system B. subtilis. Briefly: Minimum bactericidal concentration (MBC). The format is cell-based. The conditions noted are these: for MBC: Bacillus subtilis.
Data set [11] concerns K. pneumonia. Briefly: Minimum bactericidal concentration (MBC). Format: cell-based. Particulars: for MBC: Klebsiella pneumoniae.
For data set [12], the system named is S. aureus. Briefly: MIC by tube dilution method. The format is cell-based. Particulars: 24 h at 37 °C.
Data set [13] has as its system S. enterica. Briefly: Minimum bactericidal concentration (MBC). Format: cell-based. The conditions noted are these: Salmonella enterica, read-out: MBC/MFC. How it is done:
After MIC assessment, the indole derivatives (DS1–DS21), were additionally evaluated for MBC and MFC values. […] The 10–15 ml of nutrient agar and Sabouraud dextrose agar was added to the petri plates for bacterial and fungal samples respectively with gentle shaking of plates in order to mix the culture throughout the media. Allowed the media to solidify. The petri plates were then incubated for the predefined time and temperature as referenced already for bacterial and fungal cultures respectively. The plates were then investigated visually for the development of microbial growth. The MBC and MFC were stated as the minimum concentration of the compounds in aliquots showing no visual growth after incubation.

Data set [14] relates to S. aureus. Briefly: Minimum bactericidal concentration (MBC). The format is cell-based. The conditions noted are these: for MBC: Staphylococcus aureus.
Where [15] appears, read: Aspergillus niger, 168 h, read-out: MIC.
Where [16] appears, read: Aspergillus fumigatus, 168 h, read-out: MIC.
The mark [17] stands for this setting: Salmonella enterica, 24 h, read-out: MIC.
Setting [18] is: Escherichia coli, 24 h, read-out: MIC.
The mark [19] stands for this setting: Bacillus subtilis, read-out: MIC.
Where [20] appears, read: Staphylococcus aureus, read-out: MIC.

As usually defined, the MIC is the least concentration at which growth counts as inhibited. On to `C/C(=N/c1ccc(Cl)cc1[N+](=O)[O-])c1ccc(/N=N\c2c[nH]c3ccccc23)cc1` [DS-13, (Z)-N-(1-(4-((Z)-(1H-Indol-3-yl)diazenyl)phenyl)ethylidene)-4-chloro-2-nitroaniline], for which the MBC was 3.9 to 7.81 µg/mL (≈ 9.33 to 18.7 µM) with E. coli [1]; 125 µg/mL (≈ 299 µM) against B. subtilis [10]; 15.6 µg/mL (≈ 37.4 µM) against K. pneumonia [11]; 62.5 µg/mL (≈ 150 µM) in the data set with S. enterica [13]; 62.5 µg/mL (≈ 150 µM) in the data set on S. aureus [14]. The MIC in the data set on K. pneumonia [2] was 3.9 µg/mL (≈ 9.33 µM); with A. niger [3] (setting [15]) it was 62.5 µg/mL (≈ 150 µM); in the data set with A. fumigatus [5] (setting [16]), 31.2 µg/mL (≈ 74.8 µM); in the data set on S. enterica [7] (setting [17]), 62.5 µg/mL (≈ 150 µM); with E. coli [8] (setting [18]), 7.81 µg/mL (≈ 18.7 µM); with B. subtilis [9] (setting [19]), 62.5 µg/mL (≈ 150 µM). The MIC with S. aureus [12] (setting [20]) was found to be 62.5 µg/mL (≈ 150 µM). Moreover, the MFC in the data set on A. niger [4] and in the data set on A. fumigatus [6] was 125 µg/mL (≈ 299 µM) each time.
For orientation: melting point means the temperature, or range, at which the solid turns liquid. `CC(=O)NS(=O)(=O)c1ccc(/N=C(/C)c2ccc(/N=N\c3c[nH]c4ccc([N+](=O)[O-])cc34)cc2)cc1` [DS-15, N-((4-((Z)-(1-(4-((Z)-(5-Nitro-1H-indol-3-yl)diazenyl)phenyl)ethylidene)amino)phenyl)sulfonyl)acetamide] returned a melting point of 110 to 115 °C. The compound further registered an MBC against E. coli [1] of 125 µg/mL (≈ 248 µM). Further, the minimal inhibitory concentration (MIC) with K. pneumonia [2] stood at 3.9 µg/mL (≈ 7.73 µM). Also, the minimal inhibitory concentration (MIC) in the data set on A. niger [3] (setting [15]) was 125 µg/mL (≈ 248 µM). In the data set on A. niger [4], the MFC was 125 µg/mL (≈ 248 µM). Further, the MIC in the data set on A. fumigatus [5] (setting [16]) was found to be 62.5 µg/mL (≈ 124 µM). For the same compound, the MFC with A. fumigatus [6] stood at 125 µg/mL (≈ 248 µM). Moreover, in the data set with S. enterica [7] (setting [17]), the MIC stood at 31.2 µg/mL (≈ 61.9 µM). The MIC in the data set with E. coli [8] (setting [18]) amounted to 15.6 µg/mL (≈ 31 µM). The minimum inhibitory concentration (MIC) in the data set with B. subtilis [9] (setting [19]) amounted to 31.2 µg/mL (≈ 61.9 µM). Also, in the data set on B. subtilis [10], the MBC amounted to 62.5 µg/mL (≈ 124 µM). The compound also returned an MBC with K. pneumonia [11] of 31.2 µg/mL (≈ 61.9 µM). Also, the minimum inhibitory concentration (MIC) in the data set with S. aureus [12] (setting [20]) is 125 µg/mL (≈ 248 µM). In addition, in the data set on S. enterica [13] (S. enterica, MBC), the MBC turned out to be 31.2 µg/mL (≈ 61.9 µM). Besides, in the data set with S. aureus [14], the MBC is 31.2 µg/mL (≈ 61.9 µM).
Regarding `C/C(=N/c1ccc(F)cc1)c1ccc(/N=N\c2c[nH]c3ccc([N+](=O)[O-])cc23)cc1` [DS-16, (Z)-4-Fluoro-N-(1-(4-((Z)-(5-nitro-1H-indol-3-yl)diazenyl)phenyl)ethylidene)aniline], the melting point lay within 150 to 152 °C. In addition, in the data set with E. coli [1], the MBC was determined as 62.5 µg/mL (≈ 156 µM). In addition, the MIC with K. pneumonia [2] worked out at 7.81 µg/mL (≈ 19.5 µM). In addition, in the data set with A. niger [3] (setting [15]), the MIC stood at 62.5 µg/mL (≈ 156 µM). The MFC with A. niger [4] was found to be 125 µg/mL (≈ 311 µM). Moreover, the minimum inhibitory concentration (MIC) in the data set on A. fumigatus [5] (setting [16]) was determined as 31.2 µg/mL (≈ 77.9 µM). In addition, the MFC in the data set with A. fumigatus [6] came out at 125 µg/mL (≈ 311 µM). Also, in the data set on S. enterica [7] (setting [17]), the minimal inhibitory concentration (MIC) is 62.5 µg/mL (≈ 156 µM). In addition, in the data set with E. coli [8] (setting [18]), the minimal inhibitory concentration (MIC) was found to be 15.6 µg/mL (≈ 38.9 µM). In addition, the minimal inhibitory concentration (MIC) in the data set on B. subtilis [9] (setting [19]) was found to be 31.2 µg/mL (≈ 77.9 µM). The MBC in the data set on B. subtilis [10] was found to be 125 µg/mL (≈ 311 µM). This compound also displayed an MBC in the data set on K. pneumonia [11] of 31.2 µg/mL (≈ 77.9 µM). Also, the minimal inhibitory concentration (MIC) with S. aureus [12] (setting [20]) was found to be 62.5 µg/mL (≈ 156 µM). Further, the MBC in the data set with S. enterica [13] (S. enterica, MBC) came to 62.5 µg/mL (≈ 156 µM). The MBC against S. aureus [14] is 125 µg/mL (≈ 311 µM).
The compound `C/C(=N/c1ncccn1)c1ccc(/N=N\c2c[nH]c3ccccc23)cc1` [DS-17, (Z)-N-(1-(4-((Z)-(1H-Indol-3-yl)diazenyl)phenyl)ethylidene)pyrimidin-2-amine] gave a melting point of 275 to 280 °C. The compound also displayed an MBC in the data set on E. coli [1] of 15.6 µg/mL (≈ 45.9 µM). Besides, the MIC in the data set with K. pneumonia [2] stood at 7.81 µg/mL (≈ 22.9 µM). The MIC with A. niger [3] (setting [15]) stood at 62.5 µg/mL (≈ 184 µM). Moreover, in the data set with A. niger [4], the MFC came out at 125 µg/mL (≈ 367 µM). In addition, the MIC in the data set with A. fumigatus [5] (setting [16]) stood at 31.2 µg/mL (≈ 91.8 µM). In addition, the MFC in the data set on A. fumigatus [6] amounted to 125 µg/mL (≈ 367 µM). Also, the minimum inhibitory concentration (MIC) in the data set with S. enterica [7] (setting [17]) was 62.5 µg/mL (≈ 184 µM). Moreover, the minimum inhibitory concentration (MIC) in the data set with E. coli [8] (setting [18]) amounted to 3.9 µg/mL (≈ 11.5 µM). In addition, the minimum inhibitory concentration (MIC) in the data set with B. subtilis [9] (setting [19]) is 125 µg/mL (≈ 367 µM). In the data set on B. subtilis [10], this compound registered an MBC of 62.5 µg/mL (≈ 184 µM). Moreover, the MBC with K. pneumonia [11] worked out at 15.6 µg/mL (≈ 45.9 µM). In the data set on S. aureus [12] (setting [20]), the minimal inhibitory concentration (MIC) was found to be 62.5 µg/mL (≈ 184 µM). Further, in the data set with S. enterica [13] (S. enterica, MBC), the MBC came to 62.5 µg/mL (≈ 184 µM). This compound also came in with an MBC against S. aureus [14] of 62.5 µg/mL (≈ 184 µM).
As for `C/C(=N/c1ccc(S(=O)(=O)Nc2ncccn2)cc1)c1ccc(/N=N\c2c[nH]c3ccccc23)cc1` [DS-19, 4-((Z)-(1-(4-((Z)-(1H-Indol-3-yl)diazenyl)phenyl)ethylidene)amino)-N-(pyrimidin-2-yl) benzenesulfonamide], the MBC/MFC came out at 62.5 µg/mL (≈ 126 µM) against E. coli [1]; 125 µg/mL (≈ 252 µM) against A. niger [4]; 125 µg/mL (≈ 252 µM) against A. fumigatus [6]; 125 µg/mL (≈ 252 µM) in the data set on B. subtilis [10]; 15.62 µg/mL (≈ 31.5 µM) in the data set on K. pneumonia [11]; 31.25 µg/mL (≈ 63.1 µM) in the data set on S. aureus [14]. The MIC came out at 31.25 µg/mL (≈ 63.1 µM) against A. niger [3]; 31.25 µg/mL (≈ 63.1 µM) against A. fumigatus [5]; 62.5 µg/mL (≈ 126 µM) against S. enterica [7]; 7.81 µg/mL (≈ 15.8 µM) in the data set with E. coli [8]; 31.25 µg/mL (≈ 63.1 µM) in the data set with B. subtilis [9]; 31.25 µg/mL (≈ 63.1 µM) with S. aureus [12].
Regarding `OC(Cn1cncn1)(Cn1cncn1)c1ccc(F)cc1F` [FLU, fluconazole, reference compound], the minimum inhibitory concentration (MIC) in the data set on A. niger [3] (setting [15]) was found to be 31.2 µg/mL (≈ 102 µM); with A. fumigatus [5] (setting [16]) it was 7.81 µg/mL (≈ 25.5 µM). Also, the MFC with A. niger [4] and with A. fumigatus [6] was 125 µg/mL (≈ 408 µM) each time.
